In assay [1] the test system is DOHH cells (non-Hodgkin's cell line). The experiment in a line: In vivo efficacy, DOHH non-Hodgkin's model (bendamustine combination, FIG. 8). The conditions noted are these: DOHH s.c. xenograft in mice; Compound 5A 100 mg/kg p.o. qd×13; Bendamustine 25 mg/kg i.v. qd×1; alone or combined. The method, then:
Tumor volumes were evaluated twice per week to calculate tumor volume over time, and mice were weighed twice per week as a surrogate for signs of toxicity. Tumor growth inhibition (TGI) was calculated using the following equation TGI=(1−(Td−T0)/(Cd−C0))×100%. Td and Cd are the mean tumor volumes of the treated and control animals, and T0 and C0 are the mean tumor volumes of the treated and control animals at the start of the experiment. The tumor regression was defined as individual tumor volume (TV) decrease (terminal TV compared to initial TV).

Assay [2] has as its system HL-60 cells (human myeloid leukemia cell line). The experiment in a line: In vivo efficacy, HL-60 leukemia xenograft model (cytarabine combination, FIG. 6). The following applies: HL-60 s.c. xenograft in mice; Compound 5A 25 mg/kg p.o. qd×19; Cytarabine 5 mg/kg i.p. qd 5 days on 2 days off; alone or combined. On the procedure: Mice were inoculated with HL-60 cells (human myeloid leukemia cell line) subcutaneously on the right flank with the single cell suspension of 95% viable tumor cells (1×10^7) in 100 μL IMDM Matrigel mixture (1:1 ratio) without serum for the tumor development. The treatment was started when the mean tumor size reached approximately 218 mm^3, with individual tumor size ranging from 185-245 mm^3. Animals were randomly distributed into treatment groups of 10 animals each and dosed with vehicle and indicated compounds at indicated dosage and frequency shown in FIG. 6 and Table 3. In FIG. 6, the top line (indicated with triangles) is Cytarabine (5.0 mg/kg), the second from the top line (indicated with circles) is Vehicle control, the second from the bottom line (indicated with diamonds) is Compound 5A (25 mg/kg) and the bottom line (indicated with circles) is Compound 5A (25 mg/kg p.o. qd×19)+Cytarabine (5 mg/kg i.p. qd 5×3 (5 days on 2 days off)). Tumor volumes were evaluated twice per week to calculate tumor volume over time, and mice were weighed twice per week as a surrogate for signs of toxicity. Tumor growth inhibition (TGI) was calculated using the following equation TGI=(1−(Td−T0)/(Cd−C0))×100%. Td and Cd are the mean tumor volumes of the treated and control animals, and TO and CO are the mean tumor volumes of the treated and control animals at the start of the experiment. […]

Assay [3] has as its system KMS-12-BM cells. Nature of the assay: In vivo efficacy, KMS-12-BM model (bortezomib combination, FIG. 7). The following applies: KMS-12-BM s.c. xenograft in mice; Compound 5A 50 mg/kg p.o. qd×21; Bortezomib 0.5 mg/kg i.p. BIW; alone or combined. On the procedure:
Mice were inoculated with KMS-12-BM cells ([…]) subcutaneously on the right flank with the single cell suspension of 95% viable tumor cells (1×10^7) in 100 μL IMDM Matrigel mixture (1:1 ratio) without serum for the tumor development. The treatment was started when the mean tumor size reached approximately 222 mm^3, with individual tumor size ranging from 185-245 mm^3. Animals were randomly distributed into treatment groups of 10 animals each and dosed with vehicle and indicated compounds at indicated dosage and frequency shown in FIG. 7 and Table 3. In FIG. 7, the top line (indicated with diamonds) is Vehicle control, the second from the top line (indicated with squares) is Compound 5A (50 mg/kg), the second from the bottom line (indicated with “x”) is Bortezomib (0.5 mg/kg) and the bottom line ([…]). Tumor volumes were evaluated twice per week to calculate tumor volume over time, and mice were weighed twice per week as a surrogate for signs of toxicity. Tumor growth inhibition (TGI) was calculated using the following equation TGI=(1−(Td−T0)/(Cd−C0))×100%. Td and Cd are the mean tumor volumes of the treated and control animals, and T0 and C0 are the mean tumor volumes of the treated and control animals at the start of the experiment. The tumor regression was defined as individual tumor volume (TV) decrease (terminal TV compared to initial TV).

Assay [4] has as its system MV4-11 cells. Nature of the assay: In vitro cell assay, CellTiter-Glo cell viability, MV4-11. The class given is cell-based. The following applies: 20,000 MV4-11 cells, 72 h, CTG; 25 nM Compound 5A, 2,272 nM azacitidine, single agent or combination of both. The method, then:
(§1) The cells were incubated with the indicated compound at the indicated concentration as described below. The combination indices (CI) were calculated using formula […]. A and B are the percent cell inhibition by single agent treatment, and AB is the percent cell inhibition by the combination.
(§2) For each cell line, the cell viability was assessed using a CellTiter-Glo® (CTG) assay.
In general terms: Cellular ATP, detected with luciferase, serves as a proxy for viable cell number.

The test system of assay [5] is HL-60 cells. Nature of the assay: In vitro cell assay, CellTiter-Glo cell viability, HL-60. The class given is cell-based, human. The conditions noted are these: 10,000 HL-60 cells, 72 h, CTG; 150 nM Compound 5A, 5,000 nM azacitidine, single agent or combination of both. On the procedure:
as §1, §2

Assay [6] has as its system MOLM-13 cells. The experiment in a line: In vitro cell assay, CellTiter-Glo cell viability, MOLM-13. The conditions noted are these: 20,000 MOLM-13 cells, 72 h, CTG; 5 nM Compound 5A, 1,500 nM azacitidine, single agent or combination of both. Format: cell-based. The method, then: as §1, §2
Assay [7] relates to RS4;11 cells. Nature of the assay: In vitro cell assay, CellTiter-Glo cell viability, RS4;11. Format: cell-based. The following applies: 50,000 RS4;11 cells, 72 h, CTG; 5 nM Compound 5A, 1,500 nM azacitidine, single agent or combination of both. On the procedure: as §1, §2
Assay [8] relates to HL-60 cells (human myeloid leukemia cell line). Nature of the assay: In vivo efficacy, HL-60 leukemia xenograft model (azacitidine combination, FIG. 5). The following applies: HL-60 s.c. xenograft in mice; Compound 5A 50 mg/kg p.o. qd×19; Azacitidine 2.5 mg/kg i.p. qd 5 days on 2 days off; alone or combined. On the procedure: Mice were inoculated with HL-60 cells (human myeloid leukemia cell line) subcutaneously on the right flank with the single cell suspension of 95% viable tumor cells (1×10^7) in 100 μL IMDM Matrigel mixture (1:1 ratio) without serum for the tumor development. The treatment was started when the mean tumor size reached approximately 222 mm^3, with individual tumor size ranging from 185-245 mm^3. Animals were randomly distributed into treatment groups of 10 animals each and dosed with vehicle and indicated compounds at indicated dosage and frequency shown in FIG. 5 and Table 3. In FIG. 5, the top line (indicated with circles) is Vehicle control, the second from the top line (indicated with triangles) is Azacitidine (2.5 mg/kg 5 mL/kg i.p. qd (5 days on, 2 days off,)), the second from the bottom line (indicated with circles) is Compound 5A (50 mg/kg 10 mL/kg p.o. qd×19) and the bottom line (indicated with triangles) is Compound 5A (50 mg/kg p.o. qd×19)+Azacitidine (2.5 mg/kg i.p. qd 5×3 (5 days on 2 days off)). Tumor volumes were evaluated twice per week to calculate tumor volume over time, and mice were weighed twice per week as a surrogate for signs of toxicity. Tumor growth inhibition (TGI) was calculated using the following equation TGI=(1-(Td−T0)/(Cd−C0))×100%. […]

The structures appear in SMILES notation.

Turning to `Cn1c(CCCC(=O)O)nc2cc(N(CCCl)CCCl)ccc21` [Bendamustine], in assay [1], the “TGI % Day 26” value is reported as 44%.
Take `Nc1ccn([C@@H]2O[C@H](CO)[C@@H](O)[C@@H]2O)c(=O)n1` [Cytarabine]: in assay [2], the “TGI % Day 18” value is −6%.
For the molecule `CC(C)C[C@H](NC(=O)[C@H](Cc1ccccc1)NC(=O)c1cnccn1)B(O)O` [Bortezomib, bortezomib], in assay [3], the “TGI % Day 14” value stood at 46%.
`Nc1ncn([C@@H]2O[C@H](CO)[C@@H](O)[C@H]2O)c(=O)n1` [Azacitidine, azacitidine]: the “MV4;11 % inhibition” value in assay [4] came to 82.9%. For the same molecule, the HL60 % inhibition in assay [5] amounted to 21.6%. In addition, the MOLM-13 % inhibition in assay [6] is 47.0%. In assay [7], the “RS4;11 % inhibition” value is 32.5%. The “TGI % Day 18” value in assay [8] worked out at 11%.

The record behind these values is patent publication US20230381172A1, “COMBINATIONS OF BCL-2 INHIBITORS WITH CHEMOTHERAPEUTIC AGENTS” (RECURIUM IP HOLDINGS, LLC, priority 2020, published 2023).
